Values joined by “and” are separate entries in the source; they are usually repeats but may differ in a detail not shown here. Identical values can stand only once.
How the values were obtained:
E.G7-OVA cells [1] = conditions: endogenous SIINFEKL, reported by Rotzschke et al. and Malarkannan et al.; cited from earlier work
E.G7-OVA cells [2] = assay: K^b:[…] complexes on E.G7-OVA cells (mAb 25-D1.16 fluorescence standard); assay type: cell-based, C57BL/6; conditions: endogenous SIINFEKL
Source text: (§1) As stated previously, whether mature antigen-bearing dendritic cells will be encountered by and activate naive T cells in the lymph node is likely to depend not only on the number of antigen-bearing dendritic cells that enter the node, but also on the density of MHC:peptide complexes expressed on their membranes. To estimate the density of peptide:MHC complexes on the immigrant dendritic cells generated by this procedure, we compared the fluorescence intensity of various cell populations detected by the peptide:MHC-specific mAb, 25-D1.16, using identical staining conditions and flow cytometer settings. The results are shown in Table IV, providing the number of specific peptide:MHC complexes expressed on the plasma membrane of dendritic cells after various treatments in vitro or in vivo.
The tumor cell, E.G7-OVA, is the C57BL/6 EL4 thymoma transfected with the complete gene for chicken ovalbumin (OVA). […] The number of those complexes expressed per cell has been measured independently by two different laboratories and reported to be 88 (Rotzschke et al. 1991 Eur. J. Immunol. 21:2891–2894) and 90 (Malarkannan et al. 1995 J. Exp. Med. 182:1739–1750). Therefore, the fluorescence intensity of E.G7-OVA could be used as a standard by which to estimate the number of K^b:[…] complexes expressed on the dendritic cell populations identified in the present study. […]

[3] = tested on: dendritic cells in draining lymph node; assay: Antigen-bearing dendritic cells in lymph nodes after injection of soluble protein or peptide with or without topical migration inducer; assay type: in vivo, mice
Method: The injections were followed 2 hours later by topical application of dibutyl phthalate and acetone to the abdominal skin. The antigen-bearing dendritic cells that had migrated to the draining lymph node two days later were analyzed as described above and are shown in the upper right quadrant of each dot plot.
This was followed 2 hrs later by: A) no further treatment, or B) topical application of dibutyl phthalate and acetone to the abdominal skin. The antigen-bearing dendritic cells that had migrated to the draining lymph node two days later are shown in the upper right quadrant of each dot plot.
As stated previously, whether mature antigen-bearing dendritic cells will be encountered by and activate naive T cells in the lymph node is likely to depend not only on the number of antigen-bearing dendritic cells that enter the node, but also on the density of MHC:peptide complexes expressed on their membranes.

MHC class I molecule K^b = target: T1, MHC class I molecule K^b (Mus musculus, UniProt P01901); assay: […]:K^b complexes on primary epidermal Langerhans cells in vitro (mAb 25-D1.16 flow cytometry); assay type: cell-based, C57BL/6 mice; conditions: 1.5 hrs
T1 construct: endogenous in cells; host or cells: primary epidermal Langerhans cells from C57BL/6 dorsal ear skin explants
T1 sequence (P01901 22-369): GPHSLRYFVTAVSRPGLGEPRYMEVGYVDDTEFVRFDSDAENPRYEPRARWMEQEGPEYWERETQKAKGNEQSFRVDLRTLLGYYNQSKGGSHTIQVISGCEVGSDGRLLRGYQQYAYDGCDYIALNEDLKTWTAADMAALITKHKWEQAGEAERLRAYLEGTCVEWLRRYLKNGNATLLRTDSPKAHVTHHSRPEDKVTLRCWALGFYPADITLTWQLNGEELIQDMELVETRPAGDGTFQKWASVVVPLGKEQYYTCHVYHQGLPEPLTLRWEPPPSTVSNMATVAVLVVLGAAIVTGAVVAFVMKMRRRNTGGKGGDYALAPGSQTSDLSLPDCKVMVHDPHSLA
T1 sequence (P01887 21-119 partner): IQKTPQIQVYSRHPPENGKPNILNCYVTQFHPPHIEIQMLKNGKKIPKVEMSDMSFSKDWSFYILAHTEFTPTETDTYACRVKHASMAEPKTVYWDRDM
Source text: To evaluate the immunogenic potential of various vaccine formulations and delivery methods, an antigen system that permits quantitative determination of the number of specific peptide:MHC complexes expressed on the cell membrane was used. To date, the only direct way to quantitate antigenic epitopes expressed on living cells and recognized by T cells is with the use of monoclonal antibodies (mAbs) specific for individual peptide:MHC complexes. Chicken ovalbumin (OVA) is a 40 kDa protein that has been used for many years as a prototypic experimental antigen for immunologic studies. The OVA257-264 peptide, […] (963 Da), is processed and presented in the peptide-binding groove of the MHC class I molecule K^b. The mAb, 25-D1.16, has specificity for the […]:K^b complex (Porgador et al. 1997 Immunity 6:715–726).
Primary epidermal Langerhans cells were obtained from cultured explants of C57BL/6 dorsal ear skin according to the method of Ortner et al. (Ortner et al. 1996 J. Immunol. Meth. 193:71). Over a period of 72 hrs in culture, Langerhans cells mature and migrate out of the explant, dropping onto the bottom of the culture dish. These cells were harvested and incubated for 1.5 hrs at 37° C. with various concentrations of synthetic […] peptide. The cells were then washed and stained with a FITC-conjugated anti-MHC class II (I-A^b) mAb, as well as with affinity purified and biotinylated 25-D1.16 followed by PE-avidin, and analyzed on a FACScan® flow cytometer. Non-specific binding of immunoglobulin proteins was blocked by pre-incubation and staining of the cells in a mixture of isotype control mAbs (rat IgG2a, rat IgG2b, mouse IgG1 and mouse IgG2a, each at 100–200 μg/ml) and the anti-Fc receptor mAb 2.4G2. Langerhans cells were identified by their characteristic light scatter properties (high forward, moderate side scatter) and exceptionally high levels of MHC class II expression, with the latter used to optimize the light scatter gate for each experiment. Dead cells were excluded from analysis by their uptake of 7AAD (7-amino-actinomycin D).
Each data point represents the mean and S.E. of 3 to 5 independent experiments. […]
as §1

[4] = 144 μg in 150 μl HBSS injected, no further treatment, two days later
[5] = 144 μg injected, topical dibutyl phthalate and acetone 2 hrs later, two days later
[6] = 20 μl of 0.5 mM in HBSS injected, dibutyl phthalate and acetone 2 hours later, two days later
[7] = immigrant Langerhans cells from inguinal lymph nodes 48 hrs after 4.8 μg SIINFEKL injected

Median No. of Complexes/Cell (MHC class I molecule K^b; 0.1 nM SIINFEKL in vitro): 240 complexes/cell
Median Specific Fl. Intensity (MHC class I molecule K^b; 0.1 nM SIINFEKL in vitro): 12
Median No. of Complexes/Cell (MHC class I molecule K^b; 1.0 nM SIINFEKL in vitro): 1,600 complexes/cell
Median Specific Fl. Intensity (MHC class I molecule K^b; 1.0 nM SIINFEKL in vitro): 80
Median No. of Complexes/Cell (MHC class I molecule K^b; 10 nM SIINFEKL in vitro): 4,180 complexes/cell
Median Specific Fl. Intensity (MHC class I molecule K^b; 10 nM SIINFEKL in vitro): 209
Median No. of Complexes/Cell (MHC class I molecule K^b; 100 nM SIINFEKL in vitro): 11,160 complexes/cell
Median Specific Fl. Intensity (MHC class I molecule K^b; 100 nM SIINFEKL in vitro): 558
Median No. of Complexes/Cell (MHC class I molecule K^b; 1 μM SIINFEKL in vitro): 15,200 complexes/cell
Median Specific Fl. Intensity (MHC class I molecule K^b; 1 μM SIINFEKL in vitro): 760
Sequence: SIINFEKL [eight amino acid peptide OVA257-264 of chicken ovalbumin, tumor-associated peptide antigen presented by K^b]
Median No. of Complexes/Cell (E.G7-OVA cells [1]): 88 complexes/cell and 90 complexes/cell and 89^d complexes/cell
Median Specific Fl. Intensity (E.G7-OVA cells [2]): 4.5
Dendritic Cells per Lymph Node [3, 4]: 3,024
K^b:SIINFEKL^+ DC per LymphNode [3, 4]: 504
Total Cells per Lymph Node [3, 4]: 6.3 × 10^6
Dendritic Cells per Lymph Node [3, 5]: 55,912
K^b:SIINFEKL^+ DC per LymphNode [3, 5]: 22,239
Total Cells per Lymph Node ([3]; 20 μl of 0.5 mM in HBSS injected at two sites in abdominal skin, dibutyl phthalate and acetone topically 2 hours later, two days later): 1.1 × 10^7
Dendritic Cells per Lymph Node [3, 6]: 162,628
K^b:SIINFEKL^+ DC per LymphNode [3, 6]: 89,598
Enhancement ([3]; K^b:SIINFEKL+ DC versus HBSS injection): 44×
Enhancement ([3]; SIINFEKL alone (reference)): 1×
increase in the total number of dendritic cells per lymph node ([3]; SIINFEKL injection followed by topical migration/maturation inducer versus without): 18.5 fold
increase in antigen-bearing dendritic cells per lymph node ([3]; SIINFEKL injection with versus without migration/maturation inducer): 44 fold
Median No. of Complexes/Cell [3, 7]: 860 complexes/cell
Median Specific Fl. Intensity [3, 7]: 43
increase in the number of antigen-bearing dendritic cells in the draining lymph nodes ([3]; injection followed by topical induction of migration, two days later): 44 fold
